Data taken from publication PMC8171087, “Pharmacological inhibition of noncanonical EED-EZH2 signaling overcomes chemoresistance in prostate cancer” (Theranostics, 2021).

Molecular target: embryonic ectoderm development (EED) (Homo sapiens, UniProt O75530)
Sequence (O75530 2-441): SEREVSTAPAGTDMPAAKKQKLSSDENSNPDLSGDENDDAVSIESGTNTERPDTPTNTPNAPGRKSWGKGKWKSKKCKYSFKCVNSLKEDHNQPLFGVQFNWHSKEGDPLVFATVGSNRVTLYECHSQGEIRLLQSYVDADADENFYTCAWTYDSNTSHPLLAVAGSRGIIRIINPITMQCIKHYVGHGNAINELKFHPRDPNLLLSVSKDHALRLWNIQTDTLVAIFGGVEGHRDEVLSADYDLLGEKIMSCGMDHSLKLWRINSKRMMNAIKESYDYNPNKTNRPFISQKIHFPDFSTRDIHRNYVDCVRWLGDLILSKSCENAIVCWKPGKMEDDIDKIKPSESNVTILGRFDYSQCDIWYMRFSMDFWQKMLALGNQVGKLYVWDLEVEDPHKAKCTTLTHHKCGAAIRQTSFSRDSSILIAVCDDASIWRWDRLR

CCOP(=O)(OCC)C(NC(=O)[C@H](Cc1ccc(-c2ccccc2)cc1)NC(=O)/C=C/c1ccc(-c2ccccc2)cc1)P(=O)(OCC)OCC [LG1980]
Kd: 2710 nM
